Results: US9815854B2, “3-(3H-imidazo[4,5-B]pyridin-2-yl)-1H-pyrazolo[3,4-C]pyridine and therapeutic uses thereof” (Samumed, LLC, priority 2014, dated 2017)

Columns and labels:
[1] = system: Wnt activity (Sp5-Luc reporter, TCF/LEF binding sites) in SW480 colon carcinoma cells; experiment: Sp5-Luc Wnt reporter gene screening assay in SW480 colon carcinoma cells; type: cell-based, human; settings: Homo sapiens
Source text: The screening assay for Wnt activity is described as follows. Reporter cell lines can be generated by stably transducing cancer cell lines (e.g., colon cancer) or primary cells (e.g., IEC-6 intestinal cells) with a lentiviral construct that includes a Wnt-responsive promoter driving expression of the firefly luciferase gene.
SW480 colon carcinoma cells were transduced with a lentiviral vector expressing luciferase with a human Sp5 promoter consisting of a sequence of eight TCF/LEF binding sites. SW480 cells stably expressing the Sp5-Luc reporter gene and a hygromycin resistance gene were selected by treatment with 150 μg/ml of hygroinycin for 7 days. These stably transduced SW480 cells were expanded in cell culture and used for all further screening activities. For Sp5-Luc reporter gene assays, the cells were plated at 10,000 cells/well in 96-well plates with growth medium containing 10% fetal calf serum and incubated overnight at 37° C. and 5% CO2. Each compound was dissolved in DMSO as a 10 mM stock in standard j-vials and used to prepare compound source plates in dose-response format with 3-fold serial dilutions and a 10 mM top concentration. Compound transfer from serially diluted source plates to assay plates containing the cells was accomplished using a pintool (Multimek 96, Beckman equipped with V&P Scientific FP1S50H pins) based liquid handling protocol. This protocol used a slotted pin to transfer 50 nl of compound from a source plate well to an assay plate well containing 50 μl of cells in growth medium. […] Control wells received 50 nl of DMSO treatment for nommlization and calculating IC50 values. The treated cells were incubated at 37° C. and 5% CO2 for an additional forty-two hours. Following incubation, the growth medium was removed and 50 μl of BrightGlo luminescence reagent (Promega) was added to each well of the 96-well assay plates. The plates were placed on an orbital shaker for 5 min and then luminescence was quantified on the Victor3 (Perkin Elmer) plate reader. Readings were normalized to DMSO only treated cells, and normalized activities were utilized for IC50 calculations using the dose-response log (inhibitor) vs. response—variable slope (four parameters) nonlinear regression feature available in GraphPad Prism 5.0 or 6.0.

[2] = system: primary human fibroblasts derived from IPF patients (LL29 cells); experiment: Inhibition of the fibrotic process in TGF-β1-treated primary human fibroblasts from IPF patients (αSMA staining); type: cell-based; settings: Fibroblast, 96 h, TGF-β1 20 ng/mL, 4 days, read-out: Inhibition of fibrosis EC50
Source text: The above synthesized compounds were screened using primary human fibroblasts (derived from IPF patients) treated with TGF-β1 to determine their ability to inhibit the fibrotic process.
Human Fibroblast Celt Culture: Primary human fibroblasts derived from IPF patients (LL29 cells) [^1Xiaoqiu Liu, et.al., “Fibrotic Luna Fibroblasts Show Blunted Inhibition by cAMP Due to Deficient cAMP Response Element-Binding Protein Phosphorylation”, Journal of Pharmacology and Experimental Therapeutics (2005), 315(2), 678-687; ^2Watts, K. L., et.al., “RhoA signaling modulates cyclin D1 expression in human lung fibroblasts; implications for idiopathic pulmonary fibrosis”, Respiratory Research (2006), 7(1), 88] were obtained from American Type Culture Collection (ATCC) and expanded in F12 medium supplemented with 15% Fetal Bovine Serum and Penicillin/Streptomycin.
Compound Screening: Each compound was dissolved in DMSO as a 10 mM stock and used to prepare compound source plates. Serial dilution (1:2, 11-point dose-response curves from 10 μM to […]) and compound transfer was performed using the ECHO 550 (Lahcyte, Sunnyvale, Calif.) into 384-well clear bottom assay plates (Greiner Bio-One) with appropriate DMSO backfill fhr a final DMSO concentration of 0.1%. LL29 cells were plated at 1,500 cells/well in 80 μl/well F12 medium supplemented with 1% Fetal Bovine Serum. One hour after addition of the cells. TGF-β1 (Peprotech; 20 ng/mL) was added to the plates to induce fibrosis (ref. 1 and 2 above), Wells treated with TGF-β1 and containing DMSO were used as controls. Cells were incubated at 37° C. and 5% CO2 for 4 days. Following incubation for 4 days, SYTOX green nucleic acid stain (Life Technologies [Thermo Fisher Scientific]) was added to the wells at a final concentration of 1 uM and incubated at room temperature for 30 min. Cells were then fixed using 4% formaldehyde (Electron Microscopy Sciences), washed 3 times with PBS followed by blocking and penneabilization using 3% Bovine Serum Albumin (BSA; Sigma) and 0.3% Triton X-100 (Sigma) in PBS. Cells were then stained with antibody specific to α-smooth muscle actin (αSMA; Abeam) (ref 1 and 2 above) in 3% Bovine Serum Albumin (BSA; Sigma) and 0.3% Triton X-100 (Sigma) in PBS, and incubated overnight at 4° C. Cells were then washed 3 times with PBS, followed by incubation with Alexa Flor-647 conjugated secondary antibody (Life Technologies [Thermo Fisher Scientific]) and DAPI at room temperature for 1 hour, Cells were then washed 3 times with PBS and plates were sealed for imaging. αSMA staining was imaged by excitation at 630 nm and emission at 665 nm and quantified using the Compartmental Analysis program on the CellInsight CX5 (Thermo Scientific). Dead or apoptotic cells were excluded from analysis based on positive SYTOX green staining. % of total cells positive for αSMA were counted in each well and normalized to the average of 11 wells treated with TGF-β1 on the same plate using Dotmatics' Studies Software. The normalized averages (fold change over untreated) of 3 replicate wells for each compound concentration were used to create dose-responses curves and EC50 values were calculated using non-linear regression curve fit in the Dotmatics' Studies Software. The EC50 values are reported.

Row | IC50 [1] [nM] | SMILES | EC50 [2] [nM]
1 | 464 | c1ccc(-c2ccnc3[nH]c(-c4n[nH]c5cnc(-c6cncc(CNCC7CCCC7)c6)cc45)nc23)nc1 [Compound 154, 1-Cyclopentyl-N-((5-(3-(7-(pyridin-2-yl)-3H-imidazo[4,5-b]pyridin-2-yl)-1H-pyrazolo[3,4-c]pyridin-5-yl)pyridin-3-yl)methyl)methanamine] | 596
2 | > 10000 | CCC(=O)Nc1cncc(-c2cc3c(-c4nc5c(N6CCCCC6)ccnc5[nH]4)n[nH]c3cn2)c1 [Compound 157] | ≥ 9990
3 | 84.4 | CC(C)(C)C(=O)Nc1cncc(-c2cc3c(-c4nc5c(N6CCCCC6)ccnc5[nH]4)n[nH]c3cn2)c1 [Compound 164, N-(5-(3-(7-(Piperidin-1-yl)-3H-imidazo[4,5-b]pyridin-2-yl)-1H-pyrazolo[3,4-c]pyridin-5-yl)pyridin-3-yl)pivalamide] | ≤ 9
4 | 253 | CN(C)Cc1cncc(-c2cc3c(-c4nc5c(N6CCCCC6)ccnc5[nH]4)n[nH]c3cn2)c1 [Compound 169, N,N-Dimethyl-1-(5-(3-(7-(piperidin-1-yl)-3H-imidazo[4,5-b]pyridin-2-yl)-1H-pyrazolo[3,4-c]pyridin-5-yl)pyridin-3-yl)methanamine] | 481
5 | 169 | CCCC(=O)Nc1cncc(-c2cc3c(-c4nc5c(N6CCCCC6)ccnc5[nH]4)n[nH]c3cn2)c1 [Compound 173, N-(5-(3-(7-(Piperidin-1-yl)-3H-imidazo[4,5-b]pyridin-2-yl)-1H-pyrazolo[3,4-c]pyridin-5-yl)pyridin-3-yl)butyramide] | 18
6 | 155 | O=C(Nc1cncc(-c2cc3c(-c4nc5c(N6CCCCC6)ccnc5[nH]4)n[nH]c3cn2)c1)C1CC1 [Compound 175, N-(5-(3-(7-(Piperidin-1-yl)-3H-imidazo[4,5-b]pyridin-2-yl)-1H-pyrazolo[3,4-c]pyridin-5-yl)pyridin-3-yl)cyclopropanecarboxamide] | 3930
7 | > 10000 | Cc1cn(-c2ccnc3[nH]c(-c4n[nH]c5cnc(-c6cncc(CN7CCCC7)c6)cc45)nc23)cn1 [Compound 196] | ≥ 9990
8 | 1040 | CN1CCN(c2ccnc3[nH]c(-c4n[nH]c5cnc(-c6cncc(N)c6)cc45)nc23)CC1 [Compound 211, 5-(3-(7-(4-Methylpiperazin-1)-3H-imidazo[4,5-b]pyridin-2-yl)-1H-pyrazolo[3,4-c]pyridin-5-yl)pyridin-3-amine] | ≥ 9990
9 | > 10000 | CC(C)C(=O)Nc1cncc(-c2cc3c(-c4nc5c(N6CCN(C)CC6)ccnc5[nH]4)n[nH]c3cn2)c1 [Compound 217, N-(5-(3-(7-(4-Methylpiperazin-1-yl)-3H-imidazo[4,5-b]pyridin-2-yl)1H-pyrazolo[3,4-c]pyridin-5-yl)pyridin-3-yl)isobutyramide] | ≥ 9990
10 | 5080 | CN1CCN(c2ccnc3[nH]c(-c4n[nH]c5cnc(-c6cncc(CN7CCCCC7)c6)cc45)nc23)CC1 [Compound 223, 3-(7-(4-Methylpiperazin-1-yl)-3H-imidazo[4,5-b]pyridin-2-yl)-5-(5-(piperidin-1-ylmethyl)pyridin-3-yl)-1H-pyrazolo[3,4-c]pyridine] | ≤ 9
11 | > 10000 | CN1CCN(c2ccnc3[nH]c(-c4n[nH]c5cnc(-c6cncc(NC(=O)C7CCCC7)c6)cc45)nc23)CC1 [Compound 229, N-(5-(3-(7-(4-Methylpiperazin-1-yl)-3H-imidazo[4,5-b]pyridin-2-yl)-1H-pyrazolo[3,4-c]pyridin-5-yl)pyridin-3-yl)cyclopentanecarboxamide] | ≤ 9
12 | > 10000 | CN1CCN(c2ccnc3[nH]c(-c4n[nH]c5cnc(-c6cncnc6)cc45)nc23)CC1 [Compound 234, 3-(7-(4-Methylpiperazin-1-yl)-3H-imidazo[4,5-b]pyridin-2-yl)-5-(pyrimidin-5-yl)-1H-pyrazolo[3,4-c]pyridine] | ≥ 9990
13 | > 10000 | O=C(Cc1ccccc1)Nc1cncc(-c2cc3c(-c4nc5cccnc5[nH]4)n[nH]c3cn2)c1 [Compound 244, N-(5-(3-(3H-Imidazo[4,5-b]pyridin-2-yl)-1H-pyrazolo[3,4-c]pyridin-5-yl)pyridin-3-yl)-2-phenylacetamide] | 992
14 | > 10000 | CC(C)(C)CC(=O)Nc1cncc(-c2cc3c(-c4nc5cccnc5[nH]4)n[nH]c3cn2)c1 [Compound 250, N-(5-(3-(3H-Imidazo[4,5-b]pyridin-2-yl)-1H-pyrazolo[3,4-c]pyridin-5-yl)pyridin-3-yl)-3,3-dimethylbutanamide] | ≥ 9990
15 | 796 | O=C(Nc1cncc(-c2cc3c(-c4nc5cccnc5[nH]4)n[nH]c3cn2)c1)C1CCCCC1 [Compound 256, N-(5-(3-(3H-Imidazo[4,5-b]pyridin-2-yl)-1H-pyrazolo[3,4-c]pyridin-5-yl)pyridin-3-yl)cyclohexanecarboxamide] | ≥ 9990
16 | 26.1 | Cc1ccncc1-c1cc2c(-c3nc4c(-c5ccsc5)ccnc4[nH]3)n[nH]c2cn1 [Compound 265, 5-(4-Methylpyridin-3-yl)-3-(7-(thiophen-3-yl)-3H-imidazo[4,5-b]pyridin-2-yl)-1H-pyrazolo[3,4-c]pyridine] | 34
17 | 16.6 | O=C(Nc1cncc(-c2cc3c(-c4nc5c(-c6ccsc6)ccnc5[nH]4)n[nH]c3cn2)c1)c1ccccc1 [Compound 271, N-(5-(3-(7-(Thiophen-3-yl)-3H-imidazo[4,5-b]pyridin-2-yl)-1H-pyrazolo[3,4-c]pyridin-5-yl)pyridin-3-yl)benzarnide] | 51
18 | 24.9 | CCCC(=O)Nc1cncc(-c2cc3c(-c4nc5c(-c6ccsc6)ccnc5[nH]4)n[nH]c3cn2)c1 [Compound 277, N-(5-(3-(7-(Thiophen-3-yl)-3H-imidazo[4,5-b]pyridin-2-yl) 1H-pyrazolo[3,4-c]pyridin-5-yl)pyridin-3-yl)butyramide] | 158
19 | 74.7 | c1ccc(CNCc2cncc(-c3cc4c(-c5nc6c(-c7ccsc7)ccnc6[nH]5)n[nH]c4cn3)c2)cc1 [Compound 283, N-benzyl-1-(5-(3-(7-(thiophen-3-yl)-3H-imidazo[4,5-b]pyridin-2-yl)-1H-pyrazolopyridin-5-yl)pyridin-3-yl) methenamine] | > 10000
20 | 46.8 | CC(C)Nc1cncc(-c2cc3c(-c4nc5c(-c6ccoc6)ccnc5[nH]4)n[nH]c3cn2)c1 [Compound 298, 5-(3-(7-(Furan-3-yl)-3H-imidazo[4,5-b]pyridin-2-yl)-1H-pyrazolo[3,4-c]pyridin-5-yl)-N-isopropylpyridin-3-amine] | 472
